A short description of test [1]: Compound was tested for inhibition against hammer head ribozyme complex (HH16-F).
A short description of test [2]: Compound was evaluated for the apparent second-order binding constant (K) at a concentration of 90 uM to 5 mM.
Test [3] is described as follows: Compound was evaluated for the apparent first-order binding constant (K) at a concentration of 90 uM to 5 mM.

Structures are written as SMILES.

The Ki is a dissociation constant, usually derived from enzyme kinetics or from competition with a known ligand. A lower Ki goes with tighter binding. `NC[C@@H]1O[C@H](O[C@H]2[C@@H](O)[C@H](O[C@@H]3[C@@H](O)[C@H](N)C[C@H](N)[C@H]3O[C@H]3O[C@H](CN)[C@@H](O)[C@H](O)[C@H]3N)O[C@@H]2CO)[C@H](N)[C@@H](O)[C@@H]1O` [FRAMYCETIN]: the inhibition constant Ki in test [1] came to 13.5 µM. For the same molecule, the K was 8 M-2 in test [2] and 4 M⁻¹ in test [3].

The values above are taken from ChEMBL document CHEMBL1132019, “RNA-aminoglycoside antibiotic interactions: fluorescence detection of binding and conformational change” (Bioorg Med Chem Lett, 1999).
